Calls of active or inactive are those of the source.
What was measured:
[1] = molecular target: T1, Calpain-2 catalytic subunit (Sus scrofa, UniProt P43367); experiment: pig calpain II inhibitor potency, dose response, biochemical, fluorogenic peptide substrate (AID 1420); assay type: functional
T1 sequence (P43367 whole entry): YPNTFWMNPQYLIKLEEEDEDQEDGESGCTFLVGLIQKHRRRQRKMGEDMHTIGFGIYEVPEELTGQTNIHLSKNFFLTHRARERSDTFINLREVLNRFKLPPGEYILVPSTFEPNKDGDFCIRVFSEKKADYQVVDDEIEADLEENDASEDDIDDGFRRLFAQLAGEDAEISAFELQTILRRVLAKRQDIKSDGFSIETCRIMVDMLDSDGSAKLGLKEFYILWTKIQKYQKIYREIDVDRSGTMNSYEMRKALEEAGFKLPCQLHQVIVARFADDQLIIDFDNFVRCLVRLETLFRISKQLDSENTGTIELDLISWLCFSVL

[2] = molecular target: T2, RNA-binding protein pos-1 (Caenorhabditis elegans, UniProt G5EF15); experiment: inhibitors of POS-1/mex-3 RNA binding, dose response, biochemical, fluorescence polarization (AID 1964);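 note: purified POS-1 fused to maltose binding protein made in E. coli; potency of compounds blocking POS-1 binding to fluorescent RNA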
T2 sequence (G5EF15 whole entry): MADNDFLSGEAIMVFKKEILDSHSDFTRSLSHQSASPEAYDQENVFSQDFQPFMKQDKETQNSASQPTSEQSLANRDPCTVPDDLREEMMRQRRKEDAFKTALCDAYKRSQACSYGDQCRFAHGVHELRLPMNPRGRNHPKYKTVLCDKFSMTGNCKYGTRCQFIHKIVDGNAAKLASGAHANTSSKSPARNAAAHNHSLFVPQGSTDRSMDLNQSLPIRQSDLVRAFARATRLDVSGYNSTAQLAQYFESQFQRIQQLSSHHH

[3] = molecular target: T3, Zinc finger protein mex-5 (Caenorhabditis elegans, UniProt Q9XUB2); experiment: MEX-5/TCR-2 RNA interaction inhibitors, dose response, biochemical, C. elegans, fluorescence polarization (AID 1960)
T3 sequence (Q9XUB2 whole entry): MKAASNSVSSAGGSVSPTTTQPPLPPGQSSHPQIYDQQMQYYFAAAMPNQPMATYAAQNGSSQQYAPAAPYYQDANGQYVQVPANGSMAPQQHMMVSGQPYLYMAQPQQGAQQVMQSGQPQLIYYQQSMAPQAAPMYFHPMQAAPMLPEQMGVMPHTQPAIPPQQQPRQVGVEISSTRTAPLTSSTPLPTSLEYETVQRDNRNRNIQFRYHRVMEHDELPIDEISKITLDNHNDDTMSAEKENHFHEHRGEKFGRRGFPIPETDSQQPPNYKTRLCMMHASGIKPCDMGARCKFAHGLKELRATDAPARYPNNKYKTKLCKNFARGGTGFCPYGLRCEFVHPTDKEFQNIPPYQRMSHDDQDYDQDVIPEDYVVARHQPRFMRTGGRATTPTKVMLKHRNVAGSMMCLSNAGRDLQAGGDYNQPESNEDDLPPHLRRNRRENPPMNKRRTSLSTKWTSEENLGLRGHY

INS1 = experiment: beta cell apoptosis inhibitors, cytokine rescue, dose response, luminescence, retest (AID 449756); assay type: functional, cell-based; conditions: Rattus norvegicus;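 note: cell death triggered by IL-1 beta plus TNF-alpha plus IFN-gamma mixture; protective hits raise ATP signal compared with cytokine alone wells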
BJ [4] = experiment: cytotoxicity toward BJ-TERT fibroblasts, dose response, cell-based, RAS-independent, luminescence (AID 1933); assay type: functional; conditions: Homo sapiens
BJ [5] = experiment: cells; assay type: functional, cell-based; conditions: Homo sapiens
BJ [6] = experiment: cytotoxicity toward BJ-TERT-LT-ST fibroblasts, dose response, cell-based, RAS-independent, luminescence (AID 1935); assay type: functional; conditions: Homo sapiens;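 note: BJ fibroblasts immortalized with TERT plus LT and ST oncogenes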
[7] = cytotoxicity toward DRD oncogenic fibroblasts, dose response, cell-based, non-viral oncogenic, luminescence (AID 1934); assay type: functional; conditions: Homo sapiens
[8] = molecular target: T4, Rac GTPase-activating protein 1 (Homo sapiens, UniProt Q9H0H5); experiment: MgcRacGAP GTPase-activating activity inhibitors, confirmation, biochemical, ADP Hunter fluorescence, primary and confirmatory (AID 624330); assay type: functional
T4 sequence (Q9H0H5 whole entry): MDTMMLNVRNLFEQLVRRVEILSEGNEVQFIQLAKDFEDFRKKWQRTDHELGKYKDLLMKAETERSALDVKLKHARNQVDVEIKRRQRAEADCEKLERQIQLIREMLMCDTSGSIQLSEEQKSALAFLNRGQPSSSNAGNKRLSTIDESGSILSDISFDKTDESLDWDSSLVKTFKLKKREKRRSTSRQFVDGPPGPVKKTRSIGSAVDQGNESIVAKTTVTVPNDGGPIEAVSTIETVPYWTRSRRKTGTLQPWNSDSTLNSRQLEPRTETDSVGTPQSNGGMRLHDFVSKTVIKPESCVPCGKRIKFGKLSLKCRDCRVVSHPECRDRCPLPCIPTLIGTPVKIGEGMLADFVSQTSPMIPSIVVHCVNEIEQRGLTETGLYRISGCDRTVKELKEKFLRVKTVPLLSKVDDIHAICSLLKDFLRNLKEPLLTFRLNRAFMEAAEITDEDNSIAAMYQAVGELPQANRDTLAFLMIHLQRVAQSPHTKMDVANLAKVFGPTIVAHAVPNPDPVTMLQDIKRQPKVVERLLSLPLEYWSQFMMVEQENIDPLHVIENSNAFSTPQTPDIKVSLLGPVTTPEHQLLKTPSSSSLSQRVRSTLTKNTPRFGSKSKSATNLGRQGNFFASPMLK

[9] = molecular target: T5, Heat shock factor protein 1 (Mus musculus, UniProt P38532); experiment: HSF1 potentiators in luciferase reporter cells, confirmation, cell-based, NIH3T3, luminescence, dose retest (AID 435004); assay type: functional;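 note: stress induced by proteasome inhibitor MG132 added 30 min after compound; luciferase reporter driven by HSF1 response element in NIH3T3 cells; actives raise luminescence as potentiators of the MG132 stress response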
T5 sequence (P38532 whole entry): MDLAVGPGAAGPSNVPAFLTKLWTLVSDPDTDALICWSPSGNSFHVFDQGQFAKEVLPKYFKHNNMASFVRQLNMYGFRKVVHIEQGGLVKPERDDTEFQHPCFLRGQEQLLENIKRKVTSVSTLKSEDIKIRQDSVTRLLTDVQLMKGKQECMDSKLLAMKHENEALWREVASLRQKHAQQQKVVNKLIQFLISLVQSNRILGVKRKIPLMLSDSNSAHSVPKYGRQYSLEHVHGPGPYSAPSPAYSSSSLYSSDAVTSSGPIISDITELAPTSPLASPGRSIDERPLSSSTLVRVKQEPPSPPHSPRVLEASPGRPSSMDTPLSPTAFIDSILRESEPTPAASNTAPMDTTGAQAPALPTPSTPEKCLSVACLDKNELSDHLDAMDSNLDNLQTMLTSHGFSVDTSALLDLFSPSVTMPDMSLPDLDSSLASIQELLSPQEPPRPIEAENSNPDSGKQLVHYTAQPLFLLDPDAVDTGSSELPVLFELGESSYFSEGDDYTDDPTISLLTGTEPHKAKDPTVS

[10] = molecular target: T6, Replicative DNA helicase DnaB (Mycobacterium tuberculosis, UniProt P9WMR3); experiment: DnaB intein splicing inhibitors, dose response, biochemical, cell-free fluorescence (AID 449749); assay type: functional
T6 sequence (P9WMR3 whole entry): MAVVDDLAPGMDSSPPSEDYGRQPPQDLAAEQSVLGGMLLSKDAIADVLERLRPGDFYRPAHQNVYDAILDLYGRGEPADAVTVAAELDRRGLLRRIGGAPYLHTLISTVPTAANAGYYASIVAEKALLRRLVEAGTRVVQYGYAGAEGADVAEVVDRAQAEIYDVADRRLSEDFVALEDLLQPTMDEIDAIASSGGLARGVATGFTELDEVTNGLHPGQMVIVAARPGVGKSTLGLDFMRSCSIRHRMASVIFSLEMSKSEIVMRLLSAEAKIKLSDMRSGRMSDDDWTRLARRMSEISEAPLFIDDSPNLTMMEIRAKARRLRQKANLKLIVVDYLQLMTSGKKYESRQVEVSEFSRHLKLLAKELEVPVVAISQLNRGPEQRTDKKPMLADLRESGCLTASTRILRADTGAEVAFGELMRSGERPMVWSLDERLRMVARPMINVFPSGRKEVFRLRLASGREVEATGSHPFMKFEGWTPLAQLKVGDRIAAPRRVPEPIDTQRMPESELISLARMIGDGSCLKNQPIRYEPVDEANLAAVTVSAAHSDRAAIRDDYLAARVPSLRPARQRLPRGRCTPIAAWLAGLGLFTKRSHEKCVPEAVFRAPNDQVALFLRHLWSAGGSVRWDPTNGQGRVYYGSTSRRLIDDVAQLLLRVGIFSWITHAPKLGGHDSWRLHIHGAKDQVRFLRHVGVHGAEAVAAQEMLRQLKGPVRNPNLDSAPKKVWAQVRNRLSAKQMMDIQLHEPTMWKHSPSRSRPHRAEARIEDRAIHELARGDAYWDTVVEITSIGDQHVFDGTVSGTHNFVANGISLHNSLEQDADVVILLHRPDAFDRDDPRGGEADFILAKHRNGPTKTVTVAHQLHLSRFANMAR

Protein RecA = molecular target: T7, Protein RecA (Mycobacterium tuberculosis, UniProt P9WHJ3); experiment: Fluorescence Cell-Free Homogeneous Dose Retest to Identify Inhibitors of RecA-Intein Splicing Activity. [Related pubchem assays (depositor defined):AID2097, AID2223, AID489010, AID492950]; assay type: functional
T7 sequence (P9WHJ3 whole entry): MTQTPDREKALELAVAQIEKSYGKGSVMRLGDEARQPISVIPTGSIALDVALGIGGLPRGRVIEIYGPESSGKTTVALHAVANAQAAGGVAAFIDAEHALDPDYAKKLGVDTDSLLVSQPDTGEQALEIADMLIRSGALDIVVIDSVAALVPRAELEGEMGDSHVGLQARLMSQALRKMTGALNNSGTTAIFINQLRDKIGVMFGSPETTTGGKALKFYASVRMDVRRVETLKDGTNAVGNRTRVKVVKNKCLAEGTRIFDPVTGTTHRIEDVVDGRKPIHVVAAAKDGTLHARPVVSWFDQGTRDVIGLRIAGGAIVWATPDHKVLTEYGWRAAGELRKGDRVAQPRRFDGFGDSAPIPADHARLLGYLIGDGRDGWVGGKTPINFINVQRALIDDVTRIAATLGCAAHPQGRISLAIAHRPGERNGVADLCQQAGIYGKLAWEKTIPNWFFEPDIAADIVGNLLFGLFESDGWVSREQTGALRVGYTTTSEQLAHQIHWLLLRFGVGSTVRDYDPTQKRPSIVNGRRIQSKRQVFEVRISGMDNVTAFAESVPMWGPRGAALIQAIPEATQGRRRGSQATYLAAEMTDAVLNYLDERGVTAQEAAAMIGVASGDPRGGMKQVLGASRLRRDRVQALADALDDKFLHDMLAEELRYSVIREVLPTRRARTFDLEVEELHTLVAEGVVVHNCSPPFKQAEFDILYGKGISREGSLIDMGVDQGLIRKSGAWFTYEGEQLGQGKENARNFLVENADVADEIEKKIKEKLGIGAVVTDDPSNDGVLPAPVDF

Large T antigen = Large T antigen (Simian virus 40, UniProt P03070); assay type: functional, Betapolyomavirus macacae;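 note: Confirmatory-stage PubChem screen for compounds that inhibit SV40 T antigen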
Sequence of Large T antigen (P03070 whole entry): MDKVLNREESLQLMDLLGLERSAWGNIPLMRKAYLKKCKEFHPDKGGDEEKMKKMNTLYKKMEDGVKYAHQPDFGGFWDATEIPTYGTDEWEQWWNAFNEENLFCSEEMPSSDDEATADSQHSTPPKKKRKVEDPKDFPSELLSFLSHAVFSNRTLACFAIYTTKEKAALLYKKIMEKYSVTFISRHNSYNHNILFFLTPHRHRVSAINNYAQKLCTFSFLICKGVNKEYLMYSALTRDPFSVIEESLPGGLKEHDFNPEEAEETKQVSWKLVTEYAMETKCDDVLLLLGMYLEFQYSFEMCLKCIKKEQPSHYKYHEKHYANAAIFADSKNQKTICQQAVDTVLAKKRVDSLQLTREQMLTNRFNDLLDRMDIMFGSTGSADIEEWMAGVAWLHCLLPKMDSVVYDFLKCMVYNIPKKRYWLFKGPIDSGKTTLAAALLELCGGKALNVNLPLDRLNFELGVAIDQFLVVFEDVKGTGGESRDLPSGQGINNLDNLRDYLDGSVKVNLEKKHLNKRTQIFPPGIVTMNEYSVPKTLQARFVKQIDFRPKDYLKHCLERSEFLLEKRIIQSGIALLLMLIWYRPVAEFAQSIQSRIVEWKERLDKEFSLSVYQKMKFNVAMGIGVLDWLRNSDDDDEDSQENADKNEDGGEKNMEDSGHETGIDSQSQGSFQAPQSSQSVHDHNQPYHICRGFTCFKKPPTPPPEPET

SMILES: Oc1nc(SCc2ccccc2Cl)nc(-c2ccc(Cl)cc2)n1
- IC50 [1]: 4.51 µM (not active)

SMILES: CC1CCN([S+]([O-])C23CC4CC(CC(C4)C2)C3)CC1 (stereo not given)
- IC50 [1]: > 50 µM (not active)

SMILES: O=C1NC(=O)N(c2ccccc2F)C(=O)/C1=C/c1cn(CC(=O)N2CCOCC2)c2ccccc12
- EC50 [2]: > 300 µM (not active)
- EC50 [3]: > 300 µM (not active)

SMILES: CCCCCCCCCCOC(=O)C[N+](C)(C)C/C=C(/C)Cl
- AC50 (INS1): 13.3 µM (active)

SMILES: Cc1ccc(C(=O)c2cc([N+](=O)[O-])ccc2N2CCN(C)CC2)cc1
- EC50 (BJ [4]): 12.5 µM (active)
- EC50 (BJ [5]): 21.1 µM (inconclusive)
- EC50 (BJ [6]): 13.5 µM (inconclusive)
- EC50 [7]: 15.8 µM (inconclusive)

SMILES: COc1cc(CN(C)CCc2ccccn2)cc(OC)c1OC
- IC50 [8]: 101 µM (active)

SMILES: Cn1nnnc1SC(C(=O)Nc1cccc(C(F)(F)F)c1)c1ccccc1 (stereo not given)
- IC50 [1]: 16.4 µM (active)

SMILES: COc1ccc(/C=C/c2cc(C(F)(F)F)nc(O)n2)cc1OC
- EC50 [2]: > 300 µM (not active)
- EC50 [3]: > 300 µM (not active)

SMILES: Cc1[nH]c2ccccc2c1CCN(Cc1cccnc1)C(S)=Nc1ccc(F)cc1
- IC50 [1]: > 50 µM (not active)

SMILES: ClC(Cl)(Cl)c1nc2ccccc2n2nncc12
- EC50 (BJ [4]): 6.96 µM (inconclusive)
- EC50 (BJ [5]): 13.7 µM (active)
- EC50 (BJ [6]): 18.7 µM (active)
- EC50 [7]: 13.1 µM (active)
- EC50 [9]: 5.46 µM (active)
- AC50 [10]: 39.3 µM (active)
- EC50 (Protein RecA): 6.03 µM (active)

SMILES: N#CC(c1ccncc1)(c1ncc(C(F)(F)F)cc1Cl)N1CCOCC1 (stereo not given)
- IC50 [1]: 19.2 µM (not active)

SMILES: OC(COc1ccccc1)Cn1c2ccccc2c2ccccc21 (stereo not given)
- IC50 [1]: 7.48 µM (not active)

SMILES: COc1ccc(NC(=O)CN2CCN(c3nc(-c4ccc(F)cc4)cs3)CC2)c(OC)c1
- IC50 [1]: 5.73 µM (not active)

SMILES: C=CCNc1ccc(N2C(=O)C3CCC(C)CC3C2=O)cc1[N+](=O)[O-] (stereo not given)
- IC50 [1]: 4.48 µM (not active)

SMILES: Oc1ccc(-c2csc(Nc3ccccn3)n2)cc1
- IC50 [8]: 65.8 µM (active)

SMILES: CC1(O)C(=O)C=C2C=C(C3CC3)OC=C2C1=O (stereo not given)
- EC50 [2]: 41.3 µM (active)
- EC50 [3]: 17.8 µM (active)

SMILES: Cc1cccc(-c2noc(CN(C(=O)/C=C/c3ccccc3Cl)C(C)C)n2)c1
- IC50 [1]: 13.3 µM (not active)

SMILES: NS(=O)(=O)c1cccc(NC(=O)CN2CCC(Cc3ccccc3)CC2)c1
- IC50 [1]: 25.9 µM (not active)

SMILES: COC(=O)c1ccc(NC2(C#N)C(=O)Nc3ccccc32)cc1 (stereo not given)
- IC50 [1]: > 50 µM (not active)

SMILES: O=C(CNC1CCCCCC1)Nc1ccccc1N1CCOCC1
- IC50 [8]: 177 µM (active)

SMILES: COC(C(=O)N/N=C(\C)CC(=O)Nc1ccc(N(C)C)cc1)c1ccccc1 (stereo not given)
- IC50 (Large T antigen): 11.1 µM (active)
- IC50 [8]: 50.3 µM (active)

SMILES: COc1cc(/C=N/NC(=O)CCc2ccccc2)ccc1O
- IC50 [8]: 28.7 µM (active)
